Experimental findings from PubChem BioAssay (NCI) are described below.

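In this assay, cells in 96-well plates receive the compound at five concentrations for 48 hours. Endpoints are linearly interpolated between the surrounding concentrations. GI50 is the concentration that inhibits growth by half. The concentration for full growth arrest is given as TGI.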

In this test the test system is MDA-MB-468 breast. The experiment in a line: growth of human tumour cells (NCI), 48 h.
With `CCCn1c(=S)sc2c1nc(C)n1c(Nc3ccccc3)nnc21`, the GI50 is 2030 nM and the TGI is 13000 nM.

With `Cc1ccc(-c2nc3nc(-c4ccccc4)nc(N4CCCNCC4)c3o2)cc1`, the GI50 was 1590 nM and the TGI is 3350 nM.

Consider `COC(=O)Nc1nc2ccc(Oc3ccc(NC(=O)Nc4cc(C(F)(F)F)ccc4F)cc3)cc2s1`, for which the GI50 was 9110 nM and the TGI was over 25000 nM.

For the compound `O=C(O)CCNC1CCCCC1`, the GI50 is over 100000 nM and the TGI was over 100000 nM.

For the compound `O=C(CCc1nnc2sc(-c3ccc(Cl)cc3Cl)nn12)c1nc2ccccc2[nH]1`, the GI50 is 466 nM and the TGI came out at 1490 nM.

With `O=C1C(Cl)=C(NCCN2CCOCC2)C(=O)c2ncccc21`, the GI50 is 1410 nM and the TGI was found to be 2910 nM.

Consider `COc1ccc(CNS(=O)(=O)/N=C2\NC(=O)NC2=C(Cl)Cl)cc1`, for which the GI50 is 180 nM and the TGI stood at 650 nM.

Regarding `CCCCCCCCn1ccc2cc(NC(=O)Cn3cc(CN4CCCC4)nn3)ccc21`, the GI50 was 1630 nM and the TGI was 3170 nM.

As to `NC(=O)NS(=O)(=O)c1ccc(N2N=C(C(F)(F)F)CC2c2cc(C(F)(F)F)cc(C(F)(F)F)c2)cc1` (centres undefined), the GI50 is 2700 nM and the TGI is 10900 nM.

As for `CCOCC(=O)N[C@H]1CCc2cc(OC)c(OC)c(OC)c2-c2ccc(OC)c(=O)cc21`, the GI50 was under 10 nM and the TGI is over 100000 nM.

With `Cc1ccc(C(=O)N(CCCN)C(c2oc3cc(Cl)ccc3c(=O)c2Cc2ccccc2)C(C)C)cc1` (centres undefined), the GI50 is under 10 nM and the TGI came to 904 nM.

Take `Cc1ccc2c(c1)Sc1c(ccc3ccccc13)N2`: the GI50 was 56200 nM and the TGI is over 100000 nM.

`C[N+]1=C(/C=C/c2ccc(O)c3ncccc23)C(C)(C)c2ccccc21`: the GI50 is 3050 nM and the TGI was found to be 10600 nM.

With `O=C(Nc1ccncc1)C(=O)c1cn(S(=O)(=O)c2cccc(F)c2)c2ccccc12`, the GI50 was 1260 nM and the TGI came to 8380 nM.

For `CC/C=C\C[C@@H](O)C/C=C1/C(=O)C=C[C@H]1C/C=C\CCCC(=O)OC`, the GI50 is 2120 nM and the TGI is 4790 nM.

Regarding `COc1cc[nH]c1/C=C1\C(=O)Nc2ccc(F)c(C#CC3(O)CCNCC3)c21`, the GI50 was 123 nM and the TGI is 600 nM.

For `Nc1nccc(-c2c(-c3ccc(F)cc3)ncn2C2CCC(O)CC2)n1` (centres undefined), the GI50 is 822 nM and the TGI amounted to 6360 nM.

Consider `CC/C=C\C[C@H](F)C/C=C1/C(=O)C=C[C@@H]1C/C=C\CCCC(=O)O`, for which the GI50 is 3850 nM and the TGI worked out at 11500 nM.

On to `COc1cc2ncn(-c3cc(OCc4cccs4)c(C(N)=O)s3)c2cc1OC`, for which the GI50 was 654 nM and the TGI is 6410 nM.

Take `C#C[C@]1(O)CC[C@H]2[C@@H]3CC=C4c5sc(Nc6ncccc6C)nc5CC[C@]4(C)[C@H]3CC[C@@]21C`: the GI50 was 1250 nM and the TGI turned out to be 3230 nM.

Take `O=C1Nc2ccccc2C1(c1ccc(O)cc1)c1ccc(O)cc1`: the GI50 was 227 nM and the TGI was determined as 14100 nM.

Turning to `C=C(C[C@](O)(C(=O)/C=C/c1ccc(Cl)cc1)C(=O)OC)c1ccccc1`, the GI50 was 3760 nM and the TGI turned out to be 13700 nM.

In the case of `CCCCCCCC[C@@H](O)CC(=O)N[C@@H](CC(N)=O)C(=O)N[C@@H](CCC(N)=O)C(=O)N[C@@H](CC(=O)c1cc(C)cc(O)c1C(=O)c1c(O)cccc1O)CC(C)C`, the GI50 was 401 nM and the TGI was 3140 nM.

As to `O=C(O)/C=C(\c1nc2ccc([N+](=O)[O-])cc2[nH]1)c1cc(Cl)ccc1O`, the GI50 is 2090 nM and the TGI came to 9960 nM.

Regarding `Nc1nc(N(Cc2ccccc2)c2ccccc2)c2cn[nH]c2n1`, the GI50 was 1960 nM and the TGI turned out to be 6330 nM.

Take `CNC(=O)c1cc(-c2ccc(NC(=O)Nc3ccc(N4CCN(C)CC4)c(C(F)(F)F)c3)cc2)nc2cccnc12`: the GI50 was 14800 nM and the TGI was found to be 32900 nM.

Regarding `Cc1cc(-c2cnn3c(NCC4CC(C)(O)C4)cc(Oc4cccnc4)nc23)ccc1C(=O)NC1CC1` (centres undefined), the GI50 was 2080 nM and the TGI was over 100000 nM.

Turning to `COc1ccc(-c2onc(N)c2-c2cc(OC)c3c(c2)OCO3)cc1`, the GI50 was 644 nM and the TGI was 3150 nM.

In the case of `CC(C)(O)c1cncc(-c2ccc3ncnc(N4CCc5cc(F)c(Cl)cc54)c3c2)c1`, the GI50 is 567 nM and the TGI was determined as 3500 nM.

Take `COc1ccc(-c2nc(-c3nc4ccc(Cl)cc4[nH]3)c3ccccn23)cc1`: the GI50 is 1990 nM and the TGI came out at 6760 nM.

For the compound `COc1cc2cc(Oc3ccc(NC(=O)Nc4ccc(Cl)c(C(F)(F)F)c4)cc3)c(C)nc2cc1OCCN1CCOCC1`, the GI50 is 474 nM and the TGI is 2060 nM.

For the compound `CCCC(=O)OCC1OC(n2cnc3c(=S)nc[nH]c32)C(OC(=O)CCC)C1OC(=O)CCC` (centres undefined), the GI50 is 802 nM and the TGI is 45000 nM.

Regarding `CN(C)CCCOc1ccc(C(=C(c2ccccc2)C2CCCC2)c2ccc(OCCCN(C)C)cc2)cc1`, the GI50 was 1710 nM and the TGI turned out to be 3970 nM.

On to `CCN(CC)CCCC(C)Nc1c2ccc(Cl)cc2nc2ccc(O)cc12` (centres undefined), for which the GI50 is 1310 nM and the TGI came to 2910 nM.

Take `Cc1ccc(C(=O)NC(C)C)cc1-c1ccc(C(=O)NCC2CC2)cc1`: the GI50 was over 25000 nM and the TGI was over 25000 nM.

`COc1ccc2c(c1)CCCN2c1c2ccccc2nc2ccccc12`: the GI50 is 386 nM and the TGI was over 100000 nM.

As for `CC1(C)OC2=C(CC1Br)C(=O)C(=O)c1ccccc12` (centres undefined), the GI50 was 1450 nM and the TGI came out at 2820 nM.

`C#CCNC(=O)c1cccc2c1cc(C)n2-c1nc2c(c(NCc3ccccc3)n1)CCCC2`: the GI50 is 21.3 nM and the TGI is 54.6 nM.

For the compound `COc1ccc(-c2cnc(NC(=O)CCCCCCNC(=O)C(O)(O)C(F)(F)F)s2)cc1`, the GI50 was 877 nM and the TGI worked out at 5560 nM.

Take `O=C(Nc1ccc(-c2nc(N3CCOCC3)c3cccn3n2)cc1)Nc1cccnc1`: the GI50 is 69.2 nM and the TGI amounted to 570 nM.

For `Nc1nc2c(nnn2C2CC(O)C(CO)O2)c(=O)[nH]1` (centres undefined), the GI50 is 825 nM and the TGI amounted to 7200 nM.

Regarding `CS(=O)(=O)CCNCc1ccc(-c2ccc3ncnc(Nc4ccc(OCc5ccccc5)cc4)c3c2)o1`, the GI50 is 146 nM and the TGI came to 1620 nM.
